Consider seven compounds from patent US9637483B2, “Heterocyclic compound” (TAKEDA PHARMACEUTICAL COMPANY LIMITED, priority 2013, dated 2017).

What all share (type): biochemical
One assay deals with T1, TYK2 (Homo sapiens, UniProt P29597).
T1 construct: purchased Invitrogen
As to the kind of experiment: TYK2 enzyme inhibition test (LANCE method). The note with it: 1 μM test compound; for inhibition at 1 µM: read-out: TYK2 enzyme inhibitory activity (%, 1 μM). An outline of the steps:
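Recombinant TYK2 (375 ng/mL working solution) with ULight-JAK1 peptide (300 nM working solution) and ATP (30 μM working solution) in HEPES pH 7.5 buffer with MgCl2, EGTA, DTT, Tween20, BSA, reacted 1 h at RT. EDTA-stopped, Eu-anti-phosphotyrosine TR-FRET read at 665 nm; inhibition relative to enzyme-free wells as 100%.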
In general terms: Time-resolved FRET reads energy transfer from a long-lived donor to a nearby acceptor.

A further assay concerns the target T2, JAK2 (Homo sapiens, UniProt O60674).
T2 construct: purchased Invitrogen
As to the kind of experiment: JAK2 enzyme inhibition test (LANCE method). The conditions noted are these: 1 μM test compound; for inhibition at 1 µM: read-out: JAK2 enzyme inhibitory activity (%, 1 μM). An outline of the steps:
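Recombinant JAK2 (6 ng/mL solution) phosphorylated ULight-JAK1 peptide (300 nM solution) with ATP (45 μM solution) in pH 7.5 HEPES/MgCl2/DTT buffer for 1 hr at room temperature. After EDTA stop and europium anti-phosphotyrosine antibody for 1 hr, TR-FRET read at 665 nm; inhibition relative to enzyme-free wells as 100%.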

In a further assay the target is T3, JAK3 (Homo sapiens, UniProt P52333).
T3 construct: purchased Invitrogen
T3 sequence (P52333 1-1124): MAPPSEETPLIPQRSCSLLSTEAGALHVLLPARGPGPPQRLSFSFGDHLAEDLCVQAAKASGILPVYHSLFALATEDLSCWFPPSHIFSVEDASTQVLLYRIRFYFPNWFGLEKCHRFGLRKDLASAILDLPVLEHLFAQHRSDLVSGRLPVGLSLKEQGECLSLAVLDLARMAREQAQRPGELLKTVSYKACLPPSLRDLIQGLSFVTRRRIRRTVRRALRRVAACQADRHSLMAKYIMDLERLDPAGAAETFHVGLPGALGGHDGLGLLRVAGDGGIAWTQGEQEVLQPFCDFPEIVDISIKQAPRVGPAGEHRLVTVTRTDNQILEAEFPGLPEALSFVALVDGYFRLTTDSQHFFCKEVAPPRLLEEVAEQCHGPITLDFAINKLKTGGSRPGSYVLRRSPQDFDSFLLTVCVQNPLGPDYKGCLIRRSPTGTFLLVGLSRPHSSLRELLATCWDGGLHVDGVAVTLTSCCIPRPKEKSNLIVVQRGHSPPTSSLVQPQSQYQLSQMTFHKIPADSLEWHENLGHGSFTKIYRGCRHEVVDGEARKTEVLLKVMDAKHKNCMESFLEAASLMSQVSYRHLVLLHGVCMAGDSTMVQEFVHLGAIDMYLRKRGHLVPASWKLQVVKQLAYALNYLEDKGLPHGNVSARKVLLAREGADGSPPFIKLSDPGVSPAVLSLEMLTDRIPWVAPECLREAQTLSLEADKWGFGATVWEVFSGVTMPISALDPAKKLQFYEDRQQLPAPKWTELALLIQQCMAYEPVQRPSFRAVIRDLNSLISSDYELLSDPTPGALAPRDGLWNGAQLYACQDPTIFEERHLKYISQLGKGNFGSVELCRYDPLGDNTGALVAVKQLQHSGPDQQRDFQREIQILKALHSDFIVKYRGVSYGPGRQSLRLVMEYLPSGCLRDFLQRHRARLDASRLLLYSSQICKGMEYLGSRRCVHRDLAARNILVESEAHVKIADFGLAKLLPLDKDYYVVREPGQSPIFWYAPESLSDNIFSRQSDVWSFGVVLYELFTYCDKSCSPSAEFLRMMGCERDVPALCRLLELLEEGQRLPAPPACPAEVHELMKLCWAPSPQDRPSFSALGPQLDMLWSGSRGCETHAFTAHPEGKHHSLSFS
As to the kind of experiment: JAK3 enzyme inhibition test (LANCE method). The note with it: 1 μM test compound; for inhibition at 1 µM: read-out: JAK3 enzyme inhibitory activity (%, 1 μM). An outline of the steps: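 Recombinant JAK3 (12 ng/mL solution) with ULight-JAK1 peptide (300 nM solution) and ATP (15 μM solution) in HEPES pH 7.5 buffer, 1 h at room temperature. EDTA stop with Eu-anti-phosphotyrosine antibody; TR-FRET at 665 nm. Inhibition relative to enzyme-free wells as 100%.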

A further assay deals with T4, JAK1 (Homo sapiens, UniProt P23458).
T4 construct: purchased Invitrogen
T4 sequence (P23458 whole entry): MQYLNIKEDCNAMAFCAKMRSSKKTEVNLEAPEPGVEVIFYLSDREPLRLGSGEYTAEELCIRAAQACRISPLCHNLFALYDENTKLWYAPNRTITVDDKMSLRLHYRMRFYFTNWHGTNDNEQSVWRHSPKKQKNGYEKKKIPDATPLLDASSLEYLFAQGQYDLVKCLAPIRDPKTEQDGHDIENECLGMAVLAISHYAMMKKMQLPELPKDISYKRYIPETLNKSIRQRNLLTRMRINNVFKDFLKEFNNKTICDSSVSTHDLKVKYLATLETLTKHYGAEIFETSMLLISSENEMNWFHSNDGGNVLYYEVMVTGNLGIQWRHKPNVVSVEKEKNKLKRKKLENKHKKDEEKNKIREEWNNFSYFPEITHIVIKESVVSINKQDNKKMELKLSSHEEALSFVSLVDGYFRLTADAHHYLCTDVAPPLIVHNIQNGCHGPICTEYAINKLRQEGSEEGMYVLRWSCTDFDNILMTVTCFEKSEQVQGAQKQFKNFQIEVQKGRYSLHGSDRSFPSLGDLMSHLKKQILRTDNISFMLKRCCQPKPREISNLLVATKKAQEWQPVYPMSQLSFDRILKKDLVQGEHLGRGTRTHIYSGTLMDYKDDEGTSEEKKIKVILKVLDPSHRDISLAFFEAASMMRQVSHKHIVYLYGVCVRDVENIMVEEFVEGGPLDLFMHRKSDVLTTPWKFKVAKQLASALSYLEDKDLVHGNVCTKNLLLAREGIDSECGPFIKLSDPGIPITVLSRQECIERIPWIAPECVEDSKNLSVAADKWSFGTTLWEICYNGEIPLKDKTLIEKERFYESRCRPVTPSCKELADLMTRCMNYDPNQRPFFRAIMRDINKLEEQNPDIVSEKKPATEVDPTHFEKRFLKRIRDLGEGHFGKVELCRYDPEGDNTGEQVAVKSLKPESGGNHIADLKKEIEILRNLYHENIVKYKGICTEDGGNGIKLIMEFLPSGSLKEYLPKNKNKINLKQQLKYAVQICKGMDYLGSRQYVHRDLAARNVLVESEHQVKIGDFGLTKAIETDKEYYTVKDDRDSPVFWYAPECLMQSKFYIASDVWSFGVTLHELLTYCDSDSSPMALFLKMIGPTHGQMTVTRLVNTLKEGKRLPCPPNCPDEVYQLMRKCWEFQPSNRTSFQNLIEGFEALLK
As to the kind of experiment: JAK1 enzyme inhibition test (LANCE method). The conditions noted are these: 1 μM test compound; for inhibition at 1 µM: read-out: JAK1 enzyme inhibitory activity (%, 1 μM). An outline of the steps:
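TR-FRET (LANCE) with ULight-JAK1 peptide (300 nM working solution) and ATP (150 μM working solution) in HEPES pH 7.5, MgCl2, EGTA, DTT buffer; 1 h at room temperature. EDTA stop plus Eu-anti-phosphotyrosine antibody, 665 nm read after 1 h. Inhibition relative to enzyme-free wells as 100%.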

T2 sequence (O60674 whole entry): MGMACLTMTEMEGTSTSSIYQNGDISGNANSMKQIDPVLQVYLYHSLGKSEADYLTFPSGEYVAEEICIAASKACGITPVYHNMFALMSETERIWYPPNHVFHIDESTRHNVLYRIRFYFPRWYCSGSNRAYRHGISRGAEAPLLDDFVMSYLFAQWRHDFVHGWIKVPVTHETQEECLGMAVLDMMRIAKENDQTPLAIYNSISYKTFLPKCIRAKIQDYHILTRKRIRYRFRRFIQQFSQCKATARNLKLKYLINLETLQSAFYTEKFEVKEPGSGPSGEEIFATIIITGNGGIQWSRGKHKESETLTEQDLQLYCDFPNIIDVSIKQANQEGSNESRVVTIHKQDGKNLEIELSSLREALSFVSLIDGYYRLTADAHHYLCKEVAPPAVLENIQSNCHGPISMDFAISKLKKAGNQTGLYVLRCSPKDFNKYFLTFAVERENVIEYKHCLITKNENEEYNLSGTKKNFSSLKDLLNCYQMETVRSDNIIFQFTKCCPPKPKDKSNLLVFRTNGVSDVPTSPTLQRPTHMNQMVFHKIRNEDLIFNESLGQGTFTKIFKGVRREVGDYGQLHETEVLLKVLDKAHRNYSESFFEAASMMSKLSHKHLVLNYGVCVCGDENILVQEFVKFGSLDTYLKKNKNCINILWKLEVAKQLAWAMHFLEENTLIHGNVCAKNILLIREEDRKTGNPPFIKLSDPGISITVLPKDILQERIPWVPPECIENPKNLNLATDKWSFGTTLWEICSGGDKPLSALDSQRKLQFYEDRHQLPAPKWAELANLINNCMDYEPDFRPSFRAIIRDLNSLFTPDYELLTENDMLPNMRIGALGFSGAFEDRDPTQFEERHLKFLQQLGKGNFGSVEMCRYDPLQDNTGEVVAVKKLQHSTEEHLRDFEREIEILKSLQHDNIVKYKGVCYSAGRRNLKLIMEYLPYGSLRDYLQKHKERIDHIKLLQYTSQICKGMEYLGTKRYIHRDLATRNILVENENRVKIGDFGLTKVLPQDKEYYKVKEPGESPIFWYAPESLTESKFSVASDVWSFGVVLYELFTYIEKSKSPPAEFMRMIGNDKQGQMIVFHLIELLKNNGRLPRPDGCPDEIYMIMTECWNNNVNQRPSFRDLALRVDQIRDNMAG
T1 sequence (P29597 whole entry): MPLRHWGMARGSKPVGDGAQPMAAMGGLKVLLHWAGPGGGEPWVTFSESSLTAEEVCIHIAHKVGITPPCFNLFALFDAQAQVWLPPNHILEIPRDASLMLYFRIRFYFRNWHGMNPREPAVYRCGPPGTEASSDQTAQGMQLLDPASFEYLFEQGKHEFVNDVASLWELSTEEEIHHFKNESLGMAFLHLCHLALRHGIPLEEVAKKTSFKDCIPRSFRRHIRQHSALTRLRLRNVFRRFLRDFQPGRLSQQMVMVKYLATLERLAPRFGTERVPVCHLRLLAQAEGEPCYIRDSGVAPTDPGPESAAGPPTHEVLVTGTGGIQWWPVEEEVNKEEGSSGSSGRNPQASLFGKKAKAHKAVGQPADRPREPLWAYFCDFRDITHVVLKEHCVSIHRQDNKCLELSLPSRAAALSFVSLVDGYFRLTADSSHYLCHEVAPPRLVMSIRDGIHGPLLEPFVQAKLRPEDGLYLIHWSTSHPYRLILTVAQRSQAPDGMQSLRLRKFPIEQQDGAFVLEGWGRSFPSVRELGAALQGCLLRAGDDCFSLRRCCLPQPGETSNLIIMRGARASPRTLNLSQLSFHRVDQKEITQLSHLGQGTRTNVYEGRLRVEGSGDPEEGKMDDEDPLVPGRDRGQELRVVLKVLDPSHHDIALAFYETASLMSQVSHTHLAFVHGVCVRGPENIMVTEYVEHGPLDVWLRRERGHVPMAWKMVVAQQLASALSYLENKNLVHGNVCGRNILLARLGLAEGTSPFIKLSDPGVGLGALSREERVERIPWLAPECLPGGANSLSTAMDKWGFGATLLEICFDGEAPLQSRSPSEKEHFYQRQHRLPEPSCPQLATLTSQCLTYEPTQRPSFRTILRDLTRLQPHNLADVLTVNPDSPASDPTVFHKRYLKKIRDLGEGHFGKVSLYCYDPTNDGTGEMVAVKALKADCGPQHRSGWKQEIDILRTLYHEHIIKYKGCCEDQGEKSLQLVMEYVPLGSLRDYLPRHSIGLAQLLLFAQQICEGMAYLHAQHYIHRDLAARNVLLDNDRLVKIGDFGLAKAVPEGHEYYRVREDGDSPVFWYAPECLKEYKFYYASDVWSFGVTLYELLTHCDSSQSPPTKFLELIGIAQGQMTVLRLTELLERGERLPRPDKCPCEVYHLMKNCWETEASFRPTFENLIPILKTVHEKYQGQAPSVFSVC

Consider `Cn1nc(-c2cn(C(C3CC3)C3CC3)c(=O)c3c(N)n[nH]c23)cc1N1CCC(F)(F)C1` [Example 170, 3-amino-5-(dicyclopropylmethyl)-7-(5-(3,3-difluoropyrrolidin-1-yl)-1-methyl-1H-pyrazol-3-yl)-1,5-dihydro-4H-pyrazolo[4,3-c]pyridin-4-one], for which the inhibition at 1 µM is 98% on TYK2, 99% at JAK2, 99% on JAK3 and 99% at JAK1.
With `CC(C)[C@H](C)n1cc(-c2cc(C3(O)CCC(F)(F)CC3)n(C)n2)c2[nH]nc(N)c2c1=O` [Example 37, 3-amino-7-(5-(4,4-difluoro-1-hydroxycyclohexyl)-1-methyl-1H-pyrazol-3-yl)-5-((2S)-3-methylbutan-2-yl)-1,5-dihydro-4H-pyrazolo[4,3-c]pyridin-4-one], the inhibition at 1 µM worked out at 99% on TYK2, 99% at JAK2, 100% on JAK3 and 98% on JAK1.
For the compound `COC1(c2cc(-c3cn(C(C#N)C(C)C)c(=O)c4c(N)n[nH]c34)nn2C)CCC(F)(F)CC1` (stereo not shown) [Example 137, 2-(3-amino-7-(5-(4,4-difluoro-1-methoxycyclohexyl)-1-methyl-1H-pyrazol-3-yl)-4-oxo-1,4-dihydro-5H-pyrazolo[4,3-c]pyridin-5-yl)-3-methylbutanenitrile], the inhibition at 1 µM at TYK2 and at JAK2 was 99% each time. The “JAK3 enzyme inhibitory activity (%, 1 μM)” value on JAK3 is 98%. For the same compound, the “JAK1 enzyme inhibitory activity (%, 1 μM)” value at JAK1 is listed as 92%.
On to `Cn1nc(-c2cn(C(C3CC3)C3CC3)c(=O)c3c(N)n[nH]c23)cc1N1CCN2CCC[C@@H]2C1` [Example 163, 3-amino-5-(dicyclopropylmethyl)-7-(5-((8aR)-hexahydropyrrolo[1,2-a]pyrazin-2(1H)-yl)-1-methyl-1H-pyrazol-3-yl)-1,5-dihydro-4H-pyrazolo[4,3-c]pyridin-4-one], for which the inhibition at 1 µM on TYK2 came out at 101%; on JAK2, 100%; at JAK3, 100%; on JAK1, 100%.
For `CC(C)[C@H](C)n1cc(-c2cc(N3CCC(C)(O)C3)n(C)n2)c2[nH]nc(N)c2c1=O` (stereo partly drawn) [Example 63, 3-amino-7-(5-(3-hydroxy-3-methylpyrrolidin-1-yl)-1-methyl-1H-pyrazol-3-yl)-5-((2S)-3-methylbutan-2-yl)-1,5-dihydro-4H-pyrazolo[4,3-c]pyridin-4-one], the “TYK2 enzyme inhibitory activity (%, 1 μM)” value on TYK2 (1 µM) amounted to 99%. On JAK2 (1 µM), the “JAK2 enzyme inhibitory activity (%, 1 μM)” value amounted to 99%. The “JAK3 enzyme inhibitory activity (%, 1 μM)” value on JAK3 is listed as 100%. Moreover, the “JAK1 enzyme inhibitory activity (%, 1 μM)” value on JAK1 was 96%.
Turning to `CC1CCCCC1n1cc(-c2cc(C(C)(C)O)n(C)n2)c2[nH]nc(N)c2c1=O` (racemic) [Example 116, 3-amino-7-(5-(2-hydroxypropan-2-yl)-1-methyl-1H-pyrazol-3-yl)-5-(2-methylcyclohexyl)-1,5-dihydro-4H-pyrazolo[4,3-c]pyridin-4-one], the inhibition at 1 µM on TYK2 stood at 102%; at JAK2, 100%; at JAK3, 101%; on JAK1, 101%.
On to `Cn1nc(-c2cn(C3CCCC3(C)C)c(=O)c3c(N)n[nH]c23)cc1N1CCOCC1` (racemic) [Example 73, 3-amino-5-(2,2-dimethylcyclopentyl)-7-(1-methyl-5-(morpholin-4-yl)-1H-pyrazol-3-yl)-1,5-dihydro-4H-pyrazolo[4,3-c]pyridin-4-one], for which the inhibition at 1 µM was determined as 100% at TYK2, 99% at JAK2, 100% at JAK3 and 99% at JAK1.
